Data set [1] concerns ptosis réserpinique chez la souris. Nature of the data set: Antagonism of reserpine-induced ptosis in the mouse (test A). The format is in vivo. Particulars: 60 min before reserpine i.p., ptosis score (RUBIN) 3 h after reserpine, pair of scores given. Here is the method: L'activité psychopharmacologique et spécialement l'activité antidépressive des composés de formule I (dans lesquels R représente l'hydrogène ou le radical méthyle) est illustrée par le résultat des tests suivants : • A - Antagonisme du ptosis réserpinique chez la souris Le produit étudié (ou le.véhicule seul - gomme arabique et eau 1/1 - pour le lot témoin) est administré par intubation oesophagienne à des souris de sexe mâle, de souche OF1 IFFA CREDO de poids moyen 22 + 1 g, puis 60 minutes après traitement, tous les animaux reçoivent par voie intrapéritonéale 1 mg.kg de Réserpine base.
Le composé de l'exemple 1 et la quipazine prise comme référence, ont été administrés à raison de 40 mg.kg^-1 et le composé de l'exemple 2 à raison de 10 mg.kg^-1.
L'appréciation du ptosis (oeil gauche) est donnée selon la cotation de RUBIN et Coll. [J. Pharmacol. Exp. Ther. 120, 125-136 (195717 3 heures après l'administration de Réserpine.

Data set [2] deals with stéréotypies induites par l'amphétamine. Description: Potentiation of amphetamine-induced stereotypies in the rat (test B). Particulars: for B-Potentialisation des stéréotypies induites par l'amphétamine (score global sur 3 heures): global score over 3 h, printed as treated/control. The format is in vivo, rats SPRAGUE-DAWLEY. Here is the method: B - Potentialisation des stéréotypies induites par l'amphétamine
Ce test est effectué sur des rats SPRAGUE-DAWLEY de souche OFA, provenant de l'élevage IFFA CREDO et d'un poids moyen de 150 + 10 g.
Le protocole mis en oeuvre est celui préconisé par SIMON et CHERMAT [J. Pharmacol. (Paris) 3 (2) 235-238 (1972)]%. Le produit étudié (ou le véhicule seul pour le lot témoin) est administré par voie intrapéritonéale à raison de 5 mg.kg^-1.
Les résultats expriment le score global sur 3 heures.

The test system of data set [3] is comportement " muricide " chez le rat LONG-EVANS. Nature of the data set: Antagonism of muricide behaviour in the LONG-EVANS rat (test C). The class given is in vivo. Particulars: 5 mg.kg^-1 i.p., 60 min before the mouse is presented; percent decrease versus control group. Here is the method: C - Antagonisme du comportement " muricide " chez le rat LONG-EVANS
Les animaux utilisés sont des rats de sexe mâle LONG-EVANS de souche pie-noire, en provenance de l'élevage IFFA CREDO, dont la période d'isolement dans des cages individuelles est supérieure à 6 mois. L'administration des composés (ou du véhicule pour les animaux de groupe de contrôle) est effectuée par voie intrapéritonéale à raison de 5 mg.kg ^1, 60 minutes avant la mise en présence d'une souris avec les rats isolés (n ≥ 8 ) .
Le.comportement classiquement décrit comme " muricide " /VALZELLI L. - Actualités Pharmacologiques, 24, 133-152, (1971)] est positif si le rat tue la souris en un temps inférieur ou égal à 3 minutes.
Les résultats sont exprimés en pourcentage de diminution par rapport à celui du groupe des animaux de contrôle.

Data set [4] in a line: Estimated oral LD50 in the mouse. Particulars: in vivo, estimate, read-out: Evaluation DL 50. The text has this:
Dans ce tableau, on indique en outre une estimation de la DL 50 des composés par voie orale chez la souris.

Setting [5] is: 5 mg.kg^-1 i.p., percent increase of global score over control.
Setting [6] is: 40 mg.kg^-1 oral (oesophageal intubation).

In the case of `c1cc2occc2c(N2CCNCC2)n1` [EXEMPLE 2, 4-(l-piperazinyl)-furo [3,2-c] pyridine], in data set [1] (10 mg.kg^-1 oral (oesophageal intubation)), the “A-Activité anti-réserpinique vis-à-vis du ptosis” value is given as 15 / 22. The “B-Potentialisation des stéréotypies induites par l'amphétamine (score global sur 3 heures)” value in data set [2] (5 mg.kg^-1 i.p.) was 129/114. In data set [2] (setting [5]), the “B-Potentialisation des stéréotypies induites par l'amphétamine” value is given as 13,2%. Also, the “C-Antagonisme du comportement muricide” value in data set [3] is 74%. For the same molecule, in data set [4], the LD50 was 200 mg/kg.
For the molecule `c1ccc2nc(N3CCNCC3)ccc2c1` [QUIPAZINE, quipazine, reference compound], the “A-Activité anti-réserpinique vis-à-vis du ptosis” value in data set [1] (setting [6]) is listed as 14 / 23. For the same molecule, in data set [2] (even at 20 I P), the “B-Potentialisation des stéréotypies induites par l'amphétamine” value is “Inactif même à 20 I P”. For the same molecule, the “C-Antagonisme du comportement muricide” value in data set [3] is on record as 64,7%. Further, in data set [4], the LD50 was 233 to 376 mg/kg.
For the molecule `Cc1cc2occc2c(N2CCNCC2)n1` [EXEMPLE 1, 6-methyl-4-(l-piperazinyl)-furo [3,2-c] pyridine], the “A-Activité anti-réserpinique vis-à-vis du ptosis” value in data set [1] (setting [6]) is given as 13 / 23. The “B-Potentialisation des stéréotypies induites par l'amphétamine (score global sur 3 heures)” value in data set [2] (5 mg.kg^-1 i.p.) is 118/95. The “B-Potentialisation des stéréotypies induites par l'amphétamine” value in data set [2] (setting [5]) is on record as 24,2%. For the same molecule, in data set [3], the “C-Antagonisme du comportement muricide” value was determined as 90%. The LD50 in data set [4] was 250 mg/kg.
